This note sets out measurements from patent EP4043466B1, “PRC2 INHIBITORS” (Mirati Therapeutics, Inc., priority 2018, dated 2019).

For test [1], the system named is PRC2-mediated histone H3 methylation. Put plainly: Tri-Methyl Histone H3 (Lys 27) Sandwich ELISA in Pfeiffer cells: inhibition of PRC2-mediated histone H3 methylation. The class given is cell-based, human. Particulars: Inhibition of EZH2-mediated histone H3 trimethylation, Pfeiffer cells (EZH2 A677G), 96 hours incubation. The essentials: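 Pfeiffer DLBCL cells (EZH2 A677G mutant) treated with 3-fold serial dilutions, 1µM to 0.15 nM final, for 96 hours at 37°C. Acid (0.4M HCl) histone extracts, neutralized, assayed by H3K27me3 sandwich ELISA with HRP/TMB read at 450 nm.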

In test [2] the target is purified human, His-tagged PRC2 complex (Homo sapiens, UniProt O75530+Q15910). The test can be described thus: Hot Spot HMT assay: inhibition of PRC2 enzymatic activity (transfer of tritiated methyl from SAM to core histone, filter binding). The class given is biochemical. The conditions noted are these: Inhibition of PRC2-mediated enzymatic activity; 10 nM PRC2 complex, 0.05 mg/ml core histone H3, 1 uM 3H-SAM, 1 hr at 30°C. A digest of the protocol:
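Serial compound dilutions starting at 1.0 µM were pre-incubated 20 min at 30°C with 10 nM complex (His-EZH2, Flag-EED, His-SUZ12, His-AEBP2, His-RbAp48) and 0.05 mg/ml core H3. Reaction ran 1 hr at 30°C after adding 1 uM [3H]-SAM; scintillation counting followed filtration.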

In the next test the test system is Karpas 422 cells. The test can be described thus: Karpas 422 cell viability, CTG (Cell Titre Glo) assay. Particulars: Inhibition of proliferation of Karpas 422 cells (EZH2 Y641N), viability measured Day 4, Day 7 or Day 11, time point of the tabulated values not stated. The class given is cell-based, human. A digest of the protocol: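 CellTiter-Glo viability IC50s taken at Day 4, Day 7 and Day 11 of continuous compound exposure (3-fold series, 10µM top, 1.5nM lowest) in RPMI/20% FBS at 37 °C. Y641N-mutant EZH2 lymphoma line seeded at 1000 cells per well; medium and compound replaced on Day 7 for Day 11 read.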

Sequence of purified human, His-tagged PRC2 complex (Q15910 whole entry): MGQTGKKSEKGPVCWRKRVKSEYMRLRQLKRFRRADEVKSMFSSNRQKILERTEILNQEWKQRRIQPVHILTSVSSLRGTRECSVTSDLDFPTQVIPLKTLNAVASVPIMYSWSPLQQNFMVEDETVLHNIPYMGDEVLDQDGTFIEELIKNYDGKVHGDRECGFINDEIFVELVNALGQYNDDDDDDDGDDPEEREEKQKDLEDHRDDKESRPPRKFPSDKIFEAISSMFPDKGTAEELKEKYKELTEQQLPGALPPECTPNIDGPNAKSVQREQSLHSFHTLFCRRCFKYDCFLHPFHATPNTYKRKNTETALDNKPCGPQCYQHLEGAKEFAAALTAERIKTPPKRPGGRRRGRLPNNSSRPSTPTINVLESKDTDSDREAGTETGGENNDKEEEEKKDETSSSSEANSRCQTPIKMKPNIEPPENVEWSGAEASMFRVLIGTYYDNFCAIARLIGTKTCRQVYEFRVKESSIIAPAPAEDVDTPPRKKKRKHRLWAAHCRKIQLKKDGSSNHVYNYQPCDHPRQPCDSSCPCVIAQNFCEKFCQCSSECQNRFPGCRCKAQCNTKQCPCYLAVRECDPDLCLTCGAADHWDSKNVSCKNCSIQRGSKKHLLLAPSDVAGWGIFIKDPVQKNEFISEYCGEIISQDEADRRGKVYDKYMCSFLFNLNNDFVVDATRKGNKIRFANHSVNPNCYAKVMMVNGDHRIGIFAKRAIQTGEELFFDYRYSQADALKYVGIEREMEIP
Sequence of purified human, His-tagged PRC2 complex (O75530 whole entry): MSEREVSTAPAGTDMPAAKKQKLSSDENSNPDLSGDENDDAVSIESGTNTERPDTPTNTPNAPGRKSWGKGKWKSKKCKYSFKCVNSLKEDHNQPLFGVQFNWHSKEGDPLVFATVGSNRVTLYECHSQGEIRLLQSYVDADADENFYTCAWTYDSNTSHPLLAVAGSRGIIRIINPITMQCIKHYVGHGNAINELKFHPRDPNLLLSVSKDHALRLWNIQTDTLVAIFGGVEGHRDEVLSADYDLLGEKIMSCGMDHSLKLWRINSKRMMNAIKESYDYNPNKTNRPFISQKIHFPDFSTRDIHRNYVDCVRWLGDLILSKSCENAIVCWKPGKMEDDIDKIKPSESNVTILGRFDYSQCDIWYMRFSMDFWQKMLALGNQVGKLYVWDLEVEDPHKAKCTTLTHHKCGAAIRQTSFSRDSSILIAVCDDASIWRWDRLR
Sequence of purified human, His-tagged PRC2 complex (Q15022 whole entry partner): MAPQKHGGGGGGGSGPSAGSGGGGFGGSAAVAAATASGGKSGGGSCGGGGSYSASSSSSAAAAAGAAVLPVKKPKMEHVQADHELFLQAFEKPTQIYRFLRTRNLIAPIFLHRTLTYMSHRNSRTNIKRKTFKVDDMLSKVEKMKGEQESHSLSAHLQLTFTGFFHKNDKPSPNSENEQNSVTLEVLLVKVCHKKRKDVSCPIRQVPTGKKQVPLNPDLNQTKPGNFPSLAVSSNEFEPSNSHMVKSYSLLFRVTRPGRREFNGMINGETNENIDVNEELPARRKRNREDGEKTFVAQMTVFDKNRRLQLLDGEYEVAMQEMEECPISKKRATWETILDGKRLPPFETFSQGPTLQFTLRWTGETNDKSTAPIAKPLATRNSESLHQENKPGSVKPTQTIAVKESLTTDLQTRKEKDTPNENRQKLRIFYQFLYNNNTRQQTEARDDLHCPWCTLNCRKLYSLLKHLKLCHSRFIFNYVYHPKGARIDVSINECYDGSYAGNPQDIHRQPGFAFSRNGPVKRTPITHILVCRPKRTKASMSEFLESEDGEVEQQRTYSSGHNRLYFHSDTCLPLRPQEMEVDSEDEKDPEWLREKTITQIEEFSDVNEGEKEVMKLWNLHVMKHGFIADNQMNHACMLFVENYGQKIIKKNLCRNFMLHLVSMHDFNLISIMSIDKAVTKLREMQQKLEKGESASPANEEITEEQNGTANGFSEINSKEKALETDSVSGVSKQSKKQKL
Sequence of purified human, His-tagged PRC2 complex (Q6ZN18 whole entry partner): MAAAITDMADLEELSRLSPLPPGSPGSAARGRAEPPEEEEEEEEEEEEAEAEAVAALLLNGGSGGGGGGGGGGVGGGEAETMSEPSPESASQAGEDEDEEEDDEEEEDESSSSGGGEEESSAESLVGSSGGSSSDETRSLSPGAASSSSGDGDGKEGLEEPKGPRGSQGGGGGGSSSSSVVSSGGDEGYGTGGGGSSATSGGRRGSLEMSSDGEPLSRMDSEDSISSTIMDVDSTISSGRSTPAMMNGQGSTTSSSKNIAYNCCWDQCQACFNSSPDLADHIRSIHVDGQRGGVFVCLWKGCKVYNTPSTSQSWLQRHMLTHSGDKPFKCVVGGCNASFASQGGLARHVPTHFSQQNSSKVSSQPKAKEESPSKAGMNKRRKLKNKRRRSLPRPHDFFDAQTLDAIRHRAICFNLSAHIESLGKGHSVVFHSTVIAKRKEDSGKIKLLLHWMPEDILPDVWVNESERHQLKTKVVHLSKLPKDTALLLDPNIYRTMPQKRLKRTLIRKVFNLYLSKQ
Sequence of purified human, His-tagged PRC2 complex (Q09028 whole entry partner): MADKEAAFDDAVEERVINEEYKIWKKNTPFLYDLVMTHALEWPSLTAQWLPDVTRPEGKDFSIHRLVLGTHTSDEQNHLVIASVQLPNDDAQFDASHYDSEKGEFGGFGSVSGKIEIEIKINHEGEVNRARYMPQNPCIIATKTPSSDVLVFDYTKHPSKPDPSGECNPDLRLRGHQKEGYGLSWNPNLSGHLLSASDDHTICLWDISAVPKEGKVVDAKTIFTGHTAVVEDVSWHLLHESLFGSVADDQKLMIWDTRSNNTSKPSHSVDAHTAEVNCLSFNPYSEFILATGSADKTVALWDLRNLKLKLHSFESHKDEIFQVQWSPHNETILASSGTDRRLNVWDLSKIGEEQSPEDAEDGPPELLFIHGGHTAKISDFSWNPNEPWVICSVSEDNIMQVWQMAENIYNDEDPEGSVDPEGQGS

For the molecule `Cc1c(-c2cnc(NCc3c(F)ccc4c3CCO4)n3cc(C#N)nc23)cnc(CN(C)C)c1F` [Example 233, 8-(6-((dimethylamino)methyl)-5-fluoro-4-methylpyridin-3-yl)-5-(((5-fluoro-2,3-dihydrobenzofuran-4-yl)methyl)amino)imidazo[1,2-c]pyrimidine-2-carbonitrile], the IC50 in test [1] (Homo sapiens) was at most 100 nM; in test [2], below 100 nM; with Karpas 422 cells (Homo sapiens) it was at most 250 nM.

Take `COC(=O)c1ccc(-c2cnc(NCc3c(F)ccc4c3CCO4)n3cc(C#N)nc23)cc1` [Example 167, methyl 4-(2-cyano-5-(((5-fluoro-2,3-dihydrobenzofuran-4-yl)methyl)amino)imidazo[1,2-c]pyrimidin-8-yl)benzoate]: the IC50 was above 500 nM in test [1] (Homo sapiens), 100 to 500 nM in test [2] and at most 250 nM with Karpas 422 cells (Homo sapiens).

On to `CN(C)CCc1cccc(-c2cnc(NCc3c(F)ccc4c3CCO4)n3cc(C#N)nc23)c1` [Example 217, 8-(3-(2-(dimethylamino)ethyl)phenyl)-5-(((5-fluoro-2,3-dihydrobenzofuran-4-yl)methyl)amino)imidazo[1,2-c]pyrimidine-2-carbonitrile], for which the IC50 was 100 to 500 nM in test [1] (Homo sapiens), below 100 nM in test [2] and at most 250 nM with Karpas 422 cells (Homo sapiens).

`COCCOc1ccc(-c2cnc(NCc3c(F)ccc4c3CCO4)n3cc(C#N)nc23)c(C)c1` [Example 206, 5-(((5-fluoro-2,3-dihydrobenzofuran-4-yl)methyl)amino)-8-(4-(2-methoxyethoxy)-2-methylphenyl)imidazo[1,2-c]pyrimidine-2-carbonitrile]: the figures for the IC50 (in test [1] (Homo sapiens); in test [2]; in the test with Karpas 422 cells (Homo sapiens)) were 100 to 500 nM, 100 to 500 nM and 250 to 500 nM, respectively.

Take `CN(C)Cc1ccc(-c2cnc(NCc3c(F)ccc4c3CCO4)n3cc(C#N)nc23)c(F)c1` [Example 61, 8-(4-((dimethylamino)methyl)-2-fluorophenyl)-5-(((5-fluoro-2,3-dihydrobenzofuran-4-yl)methyl)amino)imidazo[1,2-c]pyrimidine-2-carbonitrile]: the values for the IC50 (in test [1] (Homo sapiens); in test [2]; in the test with Karpas 422 cells (Homo sapiens)) were at most 100 nM, below 100 nM and at most 250 nM, respectively.

`Cc1cc(CN(C)C)ccc1-c1cnc(NCc2c(F)ccc3c2CCO3)n2cc(C#N)nc12` [Example 32, 8-(4-((dimethylamino)methyl)-2-methylphenyl)-5-(((5-fluoro-2,3-dihydrobenzofuran-4-yl)methyl)amino)imidazo[1,2-c]pyrimidine-2-carbonitrile]: the IC50 in test [1] (Homo sapiens) was at most 100 nM; in test [2] it was 100 to 500 nM; in the test on Karpas 422 cells (Homo sapiens), at most 250 nM.

“5-(((5-fluoro-2,3-dihydrobenzofuran-4-yl)methyl)amino)-8-(2-methyl-6-morpholinopyridin-3-yl)imidazo[1,2-c]pyrimidine-2-carbonitrile [Example 56]”: the IC50 is 100 to 500 nM in test [1], below 100 nM in test [2] and at most 250 nM with Karpas 422 cells.

For the molecule `N#Cc1cn2c(NCc3c(F)ccc4c3CCO4)ncc(-c3ccc(C(=O)N4CCOCC4)cc3)c2n1` [Example 181, 5-(((5-fluoro-2,3-dihydrobenzofuran-4-yl)methyl)amino)-8-(4-(morpholine-4-carbonyl)phenyl)imidazo[1,2-c]pyrimidine-2-carbonitrile], the IC50 in test [1] (Homo sapiens) was 100 to 500 nM; in test [2], below 100 nM; in the test with Karpas 422 cells (Homo sapiens), at most 250 nM.

Regarding `Cc1ncccc1-c1cnc(NCc2c(F)ccc3c2CCO3)n2cc(C#N)nc12` [Example 105, 5-(((5-fluoro-2,3-dihydrobenzofuran-4-yl)methyl)amino)-8-(2-methylpyridin-3-yl)imidazo[1,2-c]pyrimidine-2-carbonitrile], the IC50 in test [1] (Homo sapiens) was at most 100 nM; in test [2] it was below 100 nM; in the test on Karpas 422 cells (Homo sapiens) it was at most 250 nM.

In the case of `N#Cc1cn2c(NCc3c(F)ccc4c3CCO4)ncc(-c3ccc([C@@H]4CCCN4)cc3)c2n1` [Example 219, (S)-5-(((5-fluoro-2,3-dihydrobenzofuran-4-yl)methyl)amino)-8-(4-(pyrrolidin-2-yl)phenyl)imidazo[1,2-c]pyrimidine-2-carbonitrile], the figures for the IC50 (in test [1] (Homo sapiens); in test [2]; with Karpas 422 cells (Homo sapiens)) were 100 to 500 nM, below 100 nM and at most 250 nM, respectively.

In the case of `Cc1nc(CN(C)C)ccc1-c1cnc(NCc2c(F)ccc3c2CCO3)n2cc(C#N)nc12` [Example 152, 8-(6-((dimethylamino)methyl)-2-methylpyridin-3-yl)-5-(((5-fluoro-2,3-dihydrobenzofuran-4-yl)methyl)amino)imidazo[1,2-c]pyrimidine-2-carbonitrile], the IC50 was 100 to 500 nM in test [1] (Homo sapiens), 100 to 500 nM in test [2] and at most 250 nM with Karpas 422 cells (Homo sapiens).

Take `N#Cc1cn2c(NCc3c(F)ccc4c3CCO4)ncc(-c3ccc(C(=O)O)nc3)c2n1` [Example 215, 5-(2-cyano-5-(((5-fluoro-2,3-dihydrobenzofuran-4-yl)methyl)amino)imidazo[1,2-c]pyrimidin-8-yl)picolinic acid]: the IC50 in test [1] (Homo sapiens) is above 500 nM; in test [2] it was below 100 nM; with Karpas 422 cells (Homo sapiens) it was above 500 nM.

Take `N#Cc1cn2c(NCc3c(F)ccc4c3CCO4)ncc(-c3ccncn3)c2n1` [Example 57, 5-(((5-fluoro-2,3-dihydrobenzofuran-4-yl)methyl)amino)-8-(pyrimidin-4-yl)imidazo[1,2-c]pyrimidine-2-carbonitrile]: the IC50 in test [1] (Homo sapiens) was 100 to 500 nM; in test [2], below 100 nM; in the test with Karpas 422 cells (Homo sapiens), at most 250 nM.

As for `CN(C)C(=O)c1ccc(-c2cnc(NCc3c(F)ccc4c3CCO4)n3cc(C#N)nc23)cc1F` [Example 36, 4-(2-cyano-5-(((5-fluoro-2,3-dihydrobenzofuran-4-yl)methyl)amino)imidazo[1,2-c]pyrimidin-8-yl)-2-fluoro-N,N-dimethylbenzamide], the IC50 is at most 100 nM in test [1] (Homo sapiens), below 100 nM in test [2] and at most 250 nM with Karpas 422 cells (Homo sapiens).

Consider `CNCc1ccc(-c2cnc(NCc3c(F)ccc4c3CCO4)n3cc(C#N)nc23)c(C)c1` [Example 196, 5-(((5-fluoro-2,3-dihydrobenzofuran-4-yl)methyl)amino)-8-(2-methyl-4-((methylamino)methyl)phenyl)imidazo[1,2-c]pyrimidine-2-carbonitrile], for which the IC50 in test [1] (Homo sapiens) was 100 to 500 nM; in test [2] it was 100 to 500 nM; in the test with Karpas 422 cells (Homo sapiens), at most 250 nM.

`COC1CN(Cc2ccc(-c3cnc(NCc4c(F)ccc5c4CCO5)n4cc(C#N)nc34)cc2)C1` [Example 50, 5-(((5-fluoro-2,3-dihydrobenzofuran-4-yl)methyl)amino)-8-(4-((3-methoxyazetidin-1-yl)methyl)phenyl)imidazo[1,2-c]pyrimidine-2-carbonitrile]: the IC50 is 100 to 500 nM in test [1] (Homo sapiens), below 100 nM in test [2] and at most 250 nM with Karpas 422 cells (Homo sapiens).

Take `Cc1ncccc1-c1cnc(NCc2c(F)ccc3occc23)n2cc(C(=O)O)nc12` [Example 3, 5-(((5-fluorobenzofuran-4-yl)methyl)amino)-8-(2-methylpyridin-3-yl)imidazo[1,2-c]pyrimidine-2-carboxylic acid]: the IC50 is above 500 nM in test [1] (Homo sapiens), 100 to 500 nM in test [2] and above 500 nM in the test on Karpas 422 cells (Homo sapiens).

With `CN(C)C(=O)c1cc(F)c(-c2cnc(NCc3c(F)ccc4c3CCO4)n3cc(C#N)nc23)cc1F` [Example 38, 4-(2-cyano-5-(((5-fluoro-2,3-dihydrobenzofuran-4-yl)methyl)amino)imidazo[1,2-c]pyrimidin-8-yl)-2,5-difluoro-N,N-dimethylbenzamide], the IC50 was at most 100 nM in test [1] (Homo sapiens), below 100 nM in test [2] and at most 250 nM in the test on Karpas 422 cells (Homo sapiens).

Regarding `N#Cc1cc(-c2cnc(NCc3c(F)ccc4c3CCO4)n3cc(C#N)nc23)ccn1` [Example 188, 8-(2-cyanopyridin-4-yl)-5-(((5-fluoro-2,3-dihydrobenzofuran-4-yl)methyl)amino)imidazo[1,2-c]pyrimidine-2-carbonitrile], the IC50 in test [1] (Homo sapiens) was 100 to 500 nM; in test [2], 100 to 500 nM; in the test on Karpas 422 cells (Homo sapiens) it was 250 to 500 nM.

As for `CN1CCc2cc(-c3cnc(NCc4c(F)ccc5c4CCO5)n4cc(C#N)nc34)ccc2C1` [Example 159, 5-(((5-fluoro-2,3-dihydrobenzofuran-4-yl)methyl)amino)-8-(2-methyl-1,2,3,4-tetrahydroisoquinolin-6-yl)imidazo[1,2-c]pyrimidine-2-carbonitrile], the IC50 in test [1] (Homo sapiens) is at most 100 nM; in test [2], 100 to 500 nM; in the test on Karpas 422 cells (Homo sapiens) it was at most 250 nM.
